Experiments:
intracellular SHP-1 = biological target: T1, intracellular SHP-1 (Homo sapiens, UniProt P29350); test: tyrosine phosphorylation of SHP-1 substrates in Jurkat cells (SDS-PAGE/Western blotting, densitometry); assay type: cell-based; settings: for level capable of inhibiting intracellular SHP-1: Jurkat T cells
T1 construct: endogenous in cells; host or cells: Jurkat
Procedure: (§1) Jurkat cells in culture medium (3×10^6 cells/ml, 1 ml/tube) were treated with agents for designated times at room temperature. After brief centrifuging in a microfuge (4,000 rpm, 2 min), the cell pellet was lysed on ice for 30 min in 1001 of cold lysis buffer (1% NP40, 50 mM Tris, pH 7.4, 150 mM NaCl, 20 mM NaF, 0.2 mM Na3VO4 and 1 mM Na3MO4) containing a cocktail of proteinase inhibitors (Sigma, 1 tablet/10 ml). The lysates were cleared by centrifuging (14,000 rpm, 10 min) in a microfuge at 4° C. to remove insoluble parts, mixed with equal volume of 2×SDS-PAGE sample buffer, boiled for 5 min and analyzed (˜3×10^5 cells/well) by SDS-PAGE/Western blotting. Relative intensities of phosphotyrosine bands were quantified through densitometry analysis.
as §1, with “100 μl” for “1001”, “blotting as described previously (23, 24).” for “blotting.”
as §1, with “100 μl” for “1001”, “blotting as described previously (17, 18).” for “blotting.”

human peripheral blood = test: induction of IFNγ+ cells in human peripheral blood in vitro (ELISPOT); assay type: cell-based
Procedure: For induction of human primary IFNγ+ cells, heparinized peripheral blood samples were obtained by vein-puncture from healthy volunteers following an established protocol approved by the Institutional Review Board (IRB) of Cleveland Clinic. To mimic in vivo drug-exposure, human peripheral blood samples were directly treated with different agents without pre-separation of white blood cells from other blood components. Blood samples (0.1 ml/sample) were mixed with the agents, incubated at 37° C. for 4 hrs, diluted with 5 volumes of hypotonic solution (10 mM Tris, pH 7.4; 10 mM NaCl) to lyse RBC and centrifuged to pellet WBCs. The pellets were washed with hypotonic solution one time, re-suspended in RPMI 1640 medium (10% FCS) and used for ELISPOT assays (Human IFNγ ELISPOT Kit, R & D System) to quantify human IFNγα cells as outlined above.

[1] = toxicity in mice (viability); assay type: in vivo, mouse; settings: 10 mg/kg, daily, s.c., two weeks
Procedure: FIG. 3 illustrates differential toxicity of L5 and L6. Jurkat cells were cultured in the absence or presence of lead compound #5 (L5) (A) or #6 (L6) (B) for 6 days prior to quantification of cell growth by MTT assays. Data represent mean±SD of triplicate samples. Balb/c mice were treated with L5 (˜10 mg/kg body weight, s. c., daily, M-F/wk) for two weeks to assess its toxicity in vivo (C).
Spleens were harvested one hour post-treatment on day 4 and processed into splenocytes, which were used for assessing pLck levels by SDS-PAGE/Western blotting and for quantification of IFNγ+ cells by ELISPOT assays. Mice were also treated with L5 (˜10 mg/kg body weight, daily, s. c., n=2) to evaluate the toxicity of the compounds in vivo.

T1 sequence (P29350 whole entry): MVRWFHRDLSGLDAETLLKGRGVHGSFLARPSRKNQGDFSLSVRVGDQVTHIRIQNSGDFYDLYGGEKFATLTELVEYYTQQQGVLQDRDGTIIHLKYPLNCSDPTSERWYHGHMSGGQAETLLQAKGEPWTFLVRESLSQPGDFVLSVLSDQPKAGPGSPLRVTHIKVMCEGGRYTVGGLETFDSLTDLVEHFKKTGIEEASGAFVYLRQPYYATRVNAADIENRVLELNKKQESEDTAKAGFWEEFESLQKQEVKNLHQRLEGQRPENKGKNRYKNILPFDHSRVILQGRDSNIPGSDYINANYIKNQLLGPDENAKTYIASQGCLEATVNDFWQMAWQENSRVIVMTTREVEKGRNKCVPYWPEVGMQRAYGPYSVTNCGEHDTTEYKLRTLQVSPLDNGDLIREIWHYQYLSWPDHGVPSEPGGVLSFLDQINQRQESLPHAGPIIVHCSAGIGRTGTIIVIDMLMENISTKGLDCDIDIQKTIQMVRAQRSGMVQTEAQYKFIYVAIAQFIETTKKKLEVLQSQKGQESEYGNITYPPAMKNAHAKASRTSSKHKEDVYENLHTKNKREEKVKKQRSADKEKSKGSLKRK
Procedure for B16 melanoma tumors: Tumor volume (n=5) was measured during the study period and calculated using the formula for a prolate spheroid. Student's t test was used for assessing the significance of tumor volume differences among differential treatment groups. Mouse viability (daily) and body weights (weekly) were also recorded during the study period. Major internal organs of the mice were inspected visually upon their termination at the end of the experiment.
To assess anti-tumor activity, C57BL/6J mice (˜8-week old, female, Taconic Farms, Germantown, N.Y.) were inoculated (s. c.) at the flanks with B16 melanoma cells (4×10^4 cells/site). […] Tumor volume (n=5) was measured during the study period and calculated using the formula for a prolate spheroid. Student's t test was used for assessing the significance of tumor volume differences among differential treatment groups. Mouse viability (daily) and body weights (weekly) were also recorded during the study period. Major internal organs of the mice were inspected visually upon their termination at the end of the experiment.

## O=C1C=CC(=O)C(c2cc(Cl)ccc2Cl)=C1 [L5]
Intracellular SHP-1; 0.01 μg/ml, 10 min
  pLck-pY394 induction: 2-3 fold
Intracellular SHP-1; 0.01, 0.1, 1 or 3 μg/ml
  pSlp76 level: obviously increased
  pZap70 level: obviously increased
Intracellular SHP-1; 0.1, 1 or 3 μg/ml, 10 min
  pLck-pY394 induction: > 4 folds
Intracellular SHP-1; 10 min treatment
  dose effective in inducing pLck-pY394 (lowest / only effective dose): 0.01 μg/ml
Intracellular SHP-1
  level capable of inhibiting intracellular SHP-1: 10 ng/mL
Intracellular SHP-1; molar equivalent
  level capable of inhibiting intracellular SHP-1: ~40 nM
Intracellular SHP-1; L5-treated Jurkat cells
  pLAT level: induced
Intracellular SHP-1; by weight
  potency relative to SSG: approximately 1,000 fold
Intracellular SHP-1; in equal molar ratios
  potency relative to SSG: ~350 fold
Intracellular SHP-1; lead compounds, 10 min, densitometry, FIG. 2
  pLck-pY394 induction versus untreated control: ~10 fold
B16 melanoma tumors; 1 mg/kg/daily, M-F/wk, oral, day 22
  B16 tumor growth inhibition versus control: ~9%
B16 melanoma tumors; 3 mg/kg/day, oral, M-F/week, end of study
  growth inhibition of B16 tumors versus control: ~83%
B16 melanoma tumors; mouse, in vivo
  tolerance of treated tumor mice (behavior, gross anatomy): no apparent abnormality
Human peripheral blood; 8 μg/ml
  maximal induction of IFNγ+ cells in human peripheral blood: 20 fold
Human peripheral blood; maximal induction at a comparable dose, human peripheral blood
  effectiveness relative to SSG in inducing IFNγ+ cells: ~20 fold
[1]
  mouse viability: all alive

Source: patent US7939554B2, “Protein phosphatase inhibitors” (The Cleveland Clinic Foundation, priority 2006, dated 2011)
